Literature values, collected in patent US20230025452A1, “ANTICANCER COMBINATION THERAPY” (Boehringer Ingelheim International GmbH, priority 2017, published 2023).

Columns and labels:
[1] = system: solid tumor xenograft models and acute lymphoblastic leukemia (ALL) xenograft models; settings: Carol et al. 2013
[2] = system: human acute myeloid leukemia (AML) and human prostate tumor xenograft models harboring p53 wild-type; settings: Tovar et al. 2013

CCOc1cc(C(C)(C)C)ccc1C1=N[C@@](C)(c2ccc(Cl)cc2)[C@@](C)(c2ccc(Cl)cc2)N1C(=O)N1CCN(CCCS(C)(=O)=O)CC1 [RG-7112]
efficacy ([1]; ALL xenograft models with MLL rearrangement): particularly efficacious
tumor growth inhibition ([1]; solid tumor xenograft models): induced tumor growth inhibition
antiproliferative and proapoptotic activity [2]: antiproliferative and proapoptotic activity
